Values after ≈ are worked out from the molar mass of the structure shown. Active and inactive are the calls of the source. No cut-off for these calls is given here.
Experiments:
Staphylococcus aureus [1] = experiment: Synergistic bactericidal activity against persistent methicillin-resistant Staphylococcus aureus ATCC 33591 incubated for 18 to 24 hrs in presence of polymyxin B by time-kill assay; type: functional, organism-based; details: time 18-24 hrs
Staphylococcus aureus [2] = experiment: Antibacterial activity against methicillin-resistant Staphylococcus aureus ATCC 33591 incubated for 18 to 24 hrs by broth microdilution method; type: functional; details: time 18-24 hrs
Staphylococcus aureus [3] = experiment: Antibacterial activity against methicillin-resistant Staphylococcus aureus ATCC 33591 infected in Balb/c mouse model of acute systemic infection assessed as reduction in inflammatory cell infiltration in liver at 10 mg/kg, ip measured after 5 days by H and E staining based analysis; type: functional, organism-based; details: time 5.0 day
[4] = Toxicity in Balb/c mouse assessed as change in heart co-efficient at 20 to 80 mg/kg, ip measured after 7 days; type: organism-based; details: in vivo, 168 h, dose 20-80 mg/kg, time 7 day
[5] = tested on: Staphylococcus epidermidis; experiment: Antibacterial activity against Staphylococcus epidermidis ATCC 12228 incubated for 18 to 24 hrs by broth microdilution method; type: functional; details: time 18-24 hrs
Staphylococcus aureus [6] = experiment: Antibacterial activity against methicillin-resistant Staphylococcus aureus ATCC 33591 infected in Balb/c mouse model of skin wound infection assessed as reduction in bacterial load in skin at 10 mg/kg, ip administered thrice at 1, 24 and 48 hrs post-infection measured after 72 hrs post-infection in presence of polymyxin B; type: functional, organism-based; details: time 71.0 hrs
[7] = Toxicity in Balb/c mouse assessed as spleen pigmentation at 80 mg/kg, ip measured after 7 days; type: organism-based; details: in vivo, 168 h, time 7 day
Staphylococcus aureus [8] = experiment: Antibacterial activity against methicillin-resistant Staphylococcus aureus ATCC 33591 infected in Balb/c mouse model of skin wound infection assessed as crusted back wound at 10 mg/kg, ip administered thrice at 1, 24 and 48 hrs post-infection measured after 9 days relative to control; type: functional; details: time 9 day
Staphylococcus aureus [9] = experiment: Induction of morphological changes in methicillin-resistant Staphylococcus aureus ATCC 33591 assessed as large area membrane melting at 4 times MIC incubated for 2 hrs by SEM analysis; type: functional, organism-based
Staphylococcus aureus [10] = experiment: Antibacterial activity against methicillin-resistant Staphylococcus aureus ATCC 33591 incubated for 18 to 24 hrs in presence of 0.5 mg/ml of trypsin by broth microdilution method; type: functional; details: time 18-24 hrs
Staphylococcus aureus [11] = experiment: Antibacterial activity against methicillin-resistant Staphylococcus aureus ATCC 33591 infected in Balb/c mouse model of acute systemic infection assessed as reduction in inflammatory cell infiltration in lung at 10 mg/kg, ip measured after 5 days by H and E staining based analysis; type: functional, organism-based; details: time 5.0 day
[12] = Toxicity in Balb/c mouse assessed as survival rate at 80 mg/kg, ip measured after 7 days; type: organism-based; details: in vivo, time 7 day
Staphylococcus aureus [13] = experiment: Bactericidal activity against methicillin-resistant Staphylococcus aureus ATCC 33591 at 4 times MIC incubated for 24 hrs in presence of >64 ug/ml phosphatidylcholine by absorbance based assay; type: functional, organism-based
Staphylococcus aureus [14] = experiment: Antibacterial activity against methicillin-resistant Staphylococcus aureus ATCC 33591 infected in Balb/c mouse model of skin wound infection assessed as reduction in bacterial load in skin at 10 mg/kg, ip administered thrice at 1, 24 and 48 hrs post-infection measured after 72 hrs post-infection; type: functional, organism-based; details: time 71.0 hrs
Staphylococcus aureus [15] = experiment: Bactericidal activity against methicillin-resistant Staphylococcus aureus ATCC 33591 at 2 times MIC incubated for 6 hrs by time-kill assay relative to control; type: functional
Staphylococcus aureus [16] = experiment: (§1) Antibacterial activity against methicillin-resistant Staphylococcus aureus ATCC 33591 infected in Balb/c mouse model of skin wound infection assessed as reduction in IL-1beta activity in skin at 10 mg/kg, ip administered thrice at 1, 24 and 48 hrs post-infection measured after 14 days in presence of polymyxin B by IHC analysis; type: functional, organism-based; details: time 14.0 day
Staphylococcus aureus [17] = experiment: as §1, with “in keratosis” for “in IL-1beta activity”, “in wound surface” for “in skin”, “days” for “days in presence of polymyxin B”; type: functional, organism-based; details: time 14.0 day
Staphylococcus aureus [18] = experiment: Antibacterial activity against methicillin-resistant Staphylococcus aureus ATCC 33591 infected in Balb/c mouse model of skin wound infection assessed as wound heal at 10 mg/kg, ip administered thrice at 1, 24 and 48 hrs post-infection measured after 14 days in presence of polymyxin B relative to control; type: functional; details: time 14 day
[19] = Toxicity in Balb/c mouse assessed as survival rate at 20 mg/kg, ip measured after 7 days; type: organism-based; details: in vivo, time 7 day
Staphylococcus aureus [20] = experiment: as §1, with “inflammatory cell infiltration” for “IL-1beta activity”, “H and E staining based” for “IHC”; type: functional, organism-based; details: time 14.0 day
Staphylococcus aureus [21] = experiment: Antibacterial activity against methicillin-resistant Staphylococcus aureus ATCC 33591 infected in Balb/c mouse model of acute systemic infection assessed as reduction in bleeding in kidney at 10 mg/kg, ip measured after 5 days by H and E staining based analysis; type: functional, organism-based; details: time 5.0 day
Staphylococcus aureus [22] = experiment: Inhibition of ciprofloxacin-induced drug resistance in Staphylococcus aureus ATCC 25923 at sub-MIC measured upto 15 passages; type: functional, organism-based
Staphylococcus aureus [23] = experiment: as §1, with “in keratosis” for “in IL-1beta activity”, “in wound surface” for “in skin”; type: functional, organism-based; details: time 14.0 day
[24] = Stability in mouse serum assessed as compound degradation measured upto 96 hrs by RP-HPLC analysis; type: ADME, cell-free; details: read-out: Drug degradation
Staphylococcus aureus [25] = experiment: Antibacterial activity against gentamicin-resistant Staphylococcus aureus ATCC 25923 incubated for 18 to 24 hrs; type: functional; details: time 18-24 hrs
Staphylococcus aureus [26] = experiment: Antibacterial activity against methicillin-resistant Staphylococcus aureus ATCC 33591 incubated for 18 to 24 hrs in presence of 1 mg/ml of chymotrypsin by broth microdilution method; type: functional; details: time 18-24 hrs
[27] = Toxicity in Balb/c mouse assessed as change in serum AST level at 20 to 80 mg/kg, ip measured after 7 days; type: organism-based; details: in vivo, 168 h, dose 20-80 mg/kg, time 7 day
Staphylococcus aureus [28] = experiment: Antibacterial activity against methicillin-resistant Staphylococcus aureus ATCC 33591 incubated for 18 to 24 hrs in presence of 2 mg/ml of chymotrypsin by broth microdilution method; type: functional; details: time 18-24 hrs
Enterococcus faecalis = experiment: Antibacterial activity against Enterococcus faecalis ATCC 29212 incubated for 18 to 24 hrs by broth microdilution method; type: functional; details: time 18-24 hrs
Staphylococcus aureus [29] = experiment: Additive bactericidal activity against methicillin-resistant Staphylococcus aureus ATCC 33591 incubated for 18 to 24 hrs in presence of ciprofloxacin by time-kill assay; type: functional, organism-based; details: time 18-24 hrs
Staphylococcus aureus [30] = experiment: Antibacterial activity against methicillin-resistant Staphylococcus aureus ATCC 33591 infected in Balb/c mouse model of acute systemic infection assessed as reduction in cell swelling in heart at 10 mg/kg, ip measured after 5 days by H and E staining based analysis; type: functional, organism-based; details: time 5.0 day
[31] = Toxicity in Balb/c mouse assessed as change in serum ALT level at 20 to 80 mg/kg, ip measured after 7 days; type: organism-based; details: in vivo, 168 h, dose 20-80 mg/kg, time 7 day
Staphylococcus aureus [32] = experiment: Inhibition of imipenem-induced drug resistance in […] Staphylococcus aureus ATCC 33591 at sub-MIC measured upto 15 passages; type: functional, organism-based
Staphylococcus aureus [33] = experiment: Synergistic bactericidal activity against persistent methicillin-resistant Staphylococcus aureus ATCC 33591 at high concentration incubated for 18 to 24 hrs in presence of gentamycin by time-kill assay; type: functional, organism-based; details: time 18-24 hrs
[34] = Toxicity in Balb/c mouse assessed as change in serum BUN level at 20 to 80 mg/kg, ip measured after 7 days; type: organism-based; details: in vivo, 168 h, dose 20-80 mg/kg, time 7 day
[35] = Toxicity in Balb/c mouse assessed as kidney atrophy at 80 mg/kg, ip measured after 7 days; type: organism-based; details: in vivo, 168 h, time 7 day

CCCCCCCCCCCC(=O)N[C@H](CCCNC(=N)N)C(=O)N[C@H](CCCNC(=N)N)C(=O)N[C@H](Cc1c[nH]c2ccccc12)C(=O)O
Activity (Staphylococcus aureus [1]): Dose-dependent-effect
MIC (Staphylococcus aureus [2]): 4 µM (≈ 2.8 µg/mL)
Activity (Staphylococcus aureus [3]): Active
Activity [4]: Non-toxic
MIC [5]: 2 µM (≈ 1.4 µg/mL)
Activity (Staphylococcus aureus [6]): Active
Activity [7]: Toxic
Activity (Staphylococcus aureus [8]): 100%
Activity (Staphylococcus aureus [9]): Active
MIC (Staphylococcus aureus [10]): 4 µM
Activity (Staphylococcus aureus [11]): Active
survival at 168 h [12]: 75%
Activity (Staphylococcus aureus [13]): inactive
Activity (Staphylococcus aureus [14]): Active
Activity (Staphylococcus aureus [15]): 100%
Activity (Staphylococcus aureus [16]): Active
Activity (Staphylococcus aureus [17]): Active
Activity (Staphylococcus aureus [18]): 100%
survival at 168 h [19]: 62.5%
Activity (Staphylococcus aureus [20]): Active
Activity (Staphylococcus aureus [21]): Active
inhibition (Staphylococcus aureus [22]): Active
Activity (Staphylococcus aureus [23]): Active
metabolised at 96 h [24]: ~20%
MIC (Staphylococcus aureus [25]): 8 µM (≈ 5.59 µg/mL)
MIC (Staphylococcus aureus [26]): 4 µM
Activity [27]: Non-toxic
MIC (Staphylococcus aureus [28]): 4 µM
MIC (Enterococcus faecalis): 8 µM (≈ 5.59 µg/mL)
Activity (Staphylococcus aureus [29]): Active
Activity (Staphylococcus aureus [30]): Active
Activity [31]: Non-toxic
inhibition (Staphylococcus aureus [32]): Active
Activity (Staphylococcus aureus [33]): Active
Activity [34]: Non-toxic
Activity [35]: Toxic

— ChEMBL document CHEMBL6114969, “Ultra-short lipopeptides containing d-amino acid exhibiting excellent stability and antibacterial activity against gram-positive bacteria” (Eur J Med Chem, 2025)
